Test: molar heat capacity at saturation pressure
Settings: Crystal 2, Small (less than 1 g) adiabatic calorimetry

O[C@@H]1[C@@H](O)[C@@H]2OC[C@@H](O2)[C@H]1O [1,6-anhydro-β-D-glucopyranose]
Settings	molar heat capacity [J/K/mol]
195.77 K	122.5
197.79 K	123.7
199.82 K	124.9
201.86 K	126.1
203.89 K	127.3
205.92 K	128.5
207.96 K	129.7
209.99 K	130.9
212.02 K	132.1
214.06 K	133.3
216.09 K	134.5
218.13 K	135.7
220.17 K	137
222.21 K	138.2
224.25 K	139.4
226.29 K	140.7
228.33 K	141.9
230.36 K	143.2
232.4 K	144.5
234.45 K	145.8
236.49 K	147
238.53 K	148.3
240.57 K	149.6
242.62 K	150.8
244.66 K	152.1
246.7 K	153.4
248.74 K	154.7
250.79 K	156.1
252.83 K	157.3
254.87 K	158.6
256.92 K	160
258.96 K	161.3
260.23 K	162.2
261.01 K	162.6
262.15 K	163.5
263.05 K	163.9
264.2 K	164.7
265.1 K	165.3
266.25 K	166
267.14 K	166.6
268.29 K	167.4
269.19 K	167.9
270.34 K	168.8
271.23 K	169.2
272.38 K	170.1
273.28 K	170.7
274.43 K	171.3
275.32 K	172
276.48 K	172.8
277.37 K	173.3
278.52 K	174.2
279.42 K	174.8
280.57 K	175.4
281.47 K	176.1
282.61 K	176.8
283.51 K	177.3
284.66 K	178.2
285.56 K	178.8
286.7 K	179.6
287.61 K	180.1
288.75 K	180.9
289.65 K	181.5
290.79 K	182.4
291.7 K	182.9
292.84 K	183.6
293.74 K	184.3
294.88 K	185.1
295.79 K	185.6
296.92 K	186.3
297.83 K	187
298.97 K	187.9
299.88 K	188.4
301.01 K	189.4
301.92 K	189.8
303.05 K	190.6
303.97 K	191.3
305.1 K	192.1
306.02 K	192.6
307.14 K	193.5
308.06 K	194.1
309.19 K	195.1
310.11 K	195.5
311.24 K	196.5
312.16 K	197
313.28 K	197.9
314.21 K	198.4
315.33 K	199.3
316.26 K	199.9
317.38 K	200.9
318.31 K	201.4
319.43 K	202.3
320.36 K	202.9
321.48 K	203.7
322.42 K	204.4
323.53 K	205.4
324.47 K	206
325.58 K	206.9
326.52 K	207.5
327.64 K	208.4
328.57 K	209.1
329.69 K	210.1
330.63 K	210.6
331.74 K	211.7
332.69 K	212.3
333.8 K	213.3
334.74 K	214
335.85 K	215.1
336.8 K	215.7
337.91 K	216.8
338.86 K	217.5
339.97 K	218.6
340.91 K	219.3
342.02 K	220.5
342.97 K	221.2
344.08 K	222.5
345.03 K	223.2
346.14 K	224.6
347.09 K	225.4
348.19 K	226.9
349.14 K	227.7
350.25 K	229.3
351.21 K	230.1
352.31 K	231.9
353.27 K	232.8
354.37 K	234.7
355.33 K	235.6
356.43 K	237.6
357.38 K	238.7
358.48 K	240.7
359.44 K	242.1
360.54 K	244.1
361.49 K	245.9
362.59 K	248.2
363.55 K	249.9
364.64 K	252.8
365.6 K	255.1
366.69 K	258.7
367.64 K	261.8
368.73 K	265.9
